# Measurements: ChEMBL document CHEMBL4706488, “Design, synthesis and biological evaluation of 2-amino-4-(1,2,4-triazol)pyridine derivatives as potent EGFR inhibitors to overcome TKI-resistance” (Eur J Med Chem, 2020)
# Active and inactive are the calls of the source. No cut-off for these calls is given here.
# Assays:
# [1] = cells; type: functional, tissue-based; settings: Homo sapiens, U87MG Human EGFR vIII
# Description: Antiproliferative activity against human U87MG Human EGFR vIII cells overexpressing EGFRvIII mutant assessed as inhibition of cell growth by MTT assay
# [2] = tested on: NCI-H1975; experiment: cells; type: functional, cell-based; settings: Homo sapiens
# [3] = tested on: A-431; experiment: cells; type: functional, cell-based; settings: Homo sapiens;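 note: antiproliferative test in A-431 cells carrying wild-type EGFR, with cell growth inhibition read by MTT assay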
# Description: Antiproliferative activity against human A-431 cells harboring wild type EGFR assessed as inhibition of cell growth by MTT assay
# [4] = tested on: U-87 MG; experiment: cells; type: functional, cell-based, U-87MG ATCC; settings: Homo sapiens;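 note: antiproliferative effect on U-87 MG cells carrying wild-type EGFR, growth inhibition read out by MTT assay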
# Description: Antiproliferative activity against human U-87MG cells harboring wild type EGFR assessed as inhibition of cell growth by MTT assay
# [5] = tested on: NCI-H1975; experiment: Induction of apoptosis in human NCI-H1975 cells assessed as early apoptotic cells at 5 uM by annexinV-FITC/propidium iodide staining based flow cytometry analysis (reference value: 0.53 %); type: functional
# [6] = biological target: ALK tyrosine kinase receptor (Homo sapiens) (UniProt Q9UM73); experiment: Inhibition of human recombinant GST-tagged ALK cytoplasmic domain (1058-1620 residues) expressed in baculovirus expression system at 1 uM by Z-lyte assay relative to control
# [7] = biological target: BDNF/NT-3 growth factors receptor (Homo sapiens) (UniProt Q16620); experiment: Inhibition of recombinant human His-tagged NTRK2 (526 to 638 residues) expressed in baculovirus expression system at 1 uM by Z-lyte assay relative to control
# Chain of BDNF/NT-3 growth factors receptor (Homo sapiens) (Q16620 32-822 limits assumed): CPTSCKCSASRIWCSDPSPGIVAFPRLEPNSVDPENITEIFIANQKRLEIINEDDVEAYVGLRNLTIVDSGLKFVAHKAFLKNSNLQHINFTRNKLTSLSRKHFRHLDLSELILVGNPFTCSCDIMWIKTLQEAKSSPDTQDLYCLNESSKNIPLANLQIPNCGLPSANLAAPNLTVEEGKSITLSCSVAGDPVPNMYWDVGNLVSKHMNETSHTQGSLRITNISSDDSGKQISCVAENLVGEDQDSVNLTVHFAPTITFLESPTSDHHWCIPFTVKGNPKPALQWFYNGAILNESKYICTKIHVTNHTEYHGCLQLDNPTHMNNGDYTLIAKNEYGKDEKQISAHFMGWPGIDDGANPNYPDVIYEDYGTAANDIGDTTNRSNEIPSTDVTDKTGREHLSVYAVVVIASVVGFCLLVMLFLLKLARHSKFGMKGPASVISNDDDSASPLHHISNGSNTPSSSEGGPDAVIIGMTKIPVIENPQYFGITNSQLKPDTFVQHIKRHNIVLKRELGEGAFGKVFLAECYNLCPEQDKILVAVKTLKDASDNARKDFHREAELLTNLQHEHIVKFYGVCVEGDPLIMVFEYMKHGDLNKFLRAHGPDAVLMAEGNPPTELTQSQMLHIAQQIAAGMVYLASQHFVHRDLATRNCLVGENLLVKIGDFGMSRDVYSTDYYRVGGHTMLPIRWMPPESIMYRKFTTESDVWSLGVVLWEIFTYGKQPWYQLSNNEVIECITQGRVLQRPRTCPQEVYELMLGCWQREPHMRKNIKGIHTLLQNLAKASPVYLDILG
# [8] = tested on: NCI-H1975; experiment: Induction of apoptosis in human NCI-H1975 cells assessed as early apoptotic cells at 10 uM by annexinV-FITC/propidium iodide staining based flow cytometry analysis (reference value: 0.53 %); type: functional
# [9] = tested on: NCI-H1975; experiment: Induction of apoptosis in human NCI-H1975 cells assessed as necrotic cells at 20 uM by annexinV-FITC/propidium iodide staining based flow cytometry analysis (reference value: 0.44 %); type: functional
# [10] = biological target: Epidermal growth factor receptor (Homo sapiens, UniProt P00533); experiment: biochemical; type: cell-based, Sf21
# Chain of Epidermal growth factor receptor (Homo sapiens, UniProt P00533) (P00533 whole entry, the tested form may be a part): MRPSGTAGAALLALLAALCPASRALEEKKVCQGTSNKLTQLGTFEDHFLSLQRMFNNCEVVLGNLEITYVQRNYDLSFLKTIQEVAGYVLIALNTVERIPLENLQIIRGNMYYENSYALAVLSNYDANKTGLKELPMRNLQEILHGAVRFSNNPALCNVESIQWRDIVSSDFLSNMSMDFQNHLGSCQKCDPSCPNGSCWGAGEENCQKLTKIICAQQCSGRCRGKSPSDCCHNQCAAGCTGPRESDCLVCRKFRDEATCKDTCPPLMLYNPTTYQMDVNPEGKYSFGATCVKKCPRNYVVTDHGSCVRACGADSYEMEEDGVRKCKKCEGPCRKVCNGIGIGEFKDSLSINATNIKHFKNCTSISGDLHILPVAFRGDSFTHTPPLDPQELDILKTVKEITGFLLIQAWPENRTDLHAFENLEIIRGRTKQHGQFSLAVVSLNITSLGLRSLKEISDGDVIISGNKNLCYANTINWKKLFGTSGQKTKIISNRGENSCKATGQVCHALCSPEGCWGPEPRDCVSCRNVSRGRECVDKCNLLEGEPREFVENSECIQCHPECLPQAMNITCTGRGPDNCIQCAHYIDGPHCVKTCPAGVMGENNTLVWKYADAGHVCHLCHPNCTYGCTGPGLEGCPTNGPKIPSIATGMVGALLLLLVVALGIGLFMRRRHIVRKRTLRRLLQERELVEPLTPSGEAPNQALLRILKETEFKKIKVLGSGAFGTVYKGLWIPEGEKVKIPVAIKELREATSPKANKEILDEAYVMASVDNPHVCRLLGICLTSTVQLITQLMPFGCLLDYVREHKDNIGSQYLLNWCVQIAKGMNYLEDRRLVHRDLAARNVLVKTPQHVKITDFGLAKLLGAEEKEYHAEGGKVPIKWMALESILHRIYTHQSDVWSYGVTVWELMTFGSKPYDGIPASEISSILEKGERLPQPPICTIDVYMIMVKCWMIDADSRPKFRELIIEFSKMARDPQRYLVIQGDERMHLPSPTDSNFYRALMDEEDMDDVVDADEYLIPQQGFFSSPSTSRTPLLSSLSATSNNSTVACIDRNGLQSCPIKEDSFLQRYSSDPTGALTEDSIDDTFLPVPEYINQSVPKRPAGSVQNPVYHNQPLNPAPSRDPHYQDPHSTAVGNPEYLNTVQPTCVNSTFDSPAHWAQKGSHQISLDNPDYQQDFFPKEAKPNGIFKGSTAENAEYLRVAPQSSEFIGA
# Description: Inhibition of wild type N-terminal GST-tagged human EGFR cytoplasmic domain (669 to 1210 residues) expressed in baculovirus infected Sf21 cells using biotin-labeled TK substrate preincubated for 30 mins followed by substrate and ATP addition at Km concentration and further incubated for 20 mins by HTRF assay
# [11] = biological target: Insulin-like growth factor 1 receptor (Homo sapiens) (UniProt P08069); experiment: Inhibition of recombinant human C-terminal His-tagged IGF1R (960 to 1397 residues) expressed in baculovirus expression system at 1 uM by Z-lyte assay relative to control
# [12] = tested on: NCI-H1975; experiment: Induction of apoptosis in human NCI-H1975 cells assessed as necrotic cells at 5 uM by annexinV-FITC/propidium iodide staining based flow cytometry analysis (reference value: 0.44 %); type: functional
# [13] = biological target: Tyrosine-protein kinase Lck (Homo sapiens) (UniProt P06239); experiment: Inhibition of recombinant human LCK at 1 uM by Z-lyte assay relative to control
# [14] = biological target: Vascular endothelial growth factor receptor 2 (Homo sapiens) (UniProt P35968); experiment: Inhibition of recombinant human His-tagged VEGFR2 (789 to 1356 residues) expressed in baculovirus expression system at 1 uM by Z-lyte assay relative to control
# [15] = biological target: Hepatocyte growth factor receptor (Homo sapiens) (UniProt P08581); experiment: Inhibition of recombinant human N-terminal His-tagged cMET (956 to 1390 residues) expressed in baculovirus expression system at 1 uM by Z-lyte assay relative to control
# [16] = tested on: NCI-H1975; experiment: Induction of apoptosis in human NCI-H1975 cells assessed as live cells at 20 uM by annexinV-FITC/propidium iodide staining based flow cytometry analysis (reference value: 98.6 %); type: functional
# [17] = tested on: NCI-H1975; experiment: Induction of apoptosis in human NCI-H1975 cells assessed as early apoptotic cells at 20 uM by annexinV-FITC/propidium iodide staining based flow cytometry analysis (reference value: 0.53 %); type: functional
# [18] = tested on: NCI-H1975; experiment: Induction of apoptosis in human NCI-H1975 cells assessed as late apoptotic cells at 20 uM by annexinV-FITC/propidium iodide staining based flow cytometry analysis (reference value: 0.42 %); type: functional
# [19] = tested on: NCI-H1975; experiment: Induction of apoptosis in human NCI-H1975 cells assessed as necrotic cells at 10 uM by annexinV-FITC/propidium iodide staining based flow cytometry analysis (reference value: 0.44 %); type: functional
# [20] = tested on: NCI-H1975; experiment: Induction of apoptosis in human NCI-H1975 cells assessed as late apoptotic cells at 10 uM by annexinV-FITC/propidium iodide staining based flow cytometry analysis (reference value: 0.42 %); type: functional
# [21] = biological target: Tyrosine-protein kinase Fyn (Homo sapiens) (UniProt P06241); experiment: Inhibition of recombinant full length human C-terminal His-tagged FYN expressed in baculovirus expression system at 1 uM by Z-lyte assay relative to control
# [22] = tested on: NCI-H1975; experiment: Induction of apoptosis in human NCI-H1975 cells assessed as live cells at 5 uM by annexinV-FITC/propidium iodide staining based flow cytometry analysis (reference value: 98.6 %); type: functional
# [23] = tested on: NCI-H1975; experiment: Induction of apoptosis in human NCI-H1975 cells assessed as live cells at 10 uM by annexinV-FITC/propidium iodide staining based flow cytometry analysis (reference value: 98.6 %); type: functional
# [24] = biological target: Epidermal growth factor receptor (Homo sapiens, UniProt P00533, L858R/T790M); experiment: biochemical; type: cell-based, Sf21
# Chain of Epidermal growth factor receptor (Homo sapiens, UniProt P00533, L858R/T790M) (P00533 25-1210 T790M/L858R limits assumed): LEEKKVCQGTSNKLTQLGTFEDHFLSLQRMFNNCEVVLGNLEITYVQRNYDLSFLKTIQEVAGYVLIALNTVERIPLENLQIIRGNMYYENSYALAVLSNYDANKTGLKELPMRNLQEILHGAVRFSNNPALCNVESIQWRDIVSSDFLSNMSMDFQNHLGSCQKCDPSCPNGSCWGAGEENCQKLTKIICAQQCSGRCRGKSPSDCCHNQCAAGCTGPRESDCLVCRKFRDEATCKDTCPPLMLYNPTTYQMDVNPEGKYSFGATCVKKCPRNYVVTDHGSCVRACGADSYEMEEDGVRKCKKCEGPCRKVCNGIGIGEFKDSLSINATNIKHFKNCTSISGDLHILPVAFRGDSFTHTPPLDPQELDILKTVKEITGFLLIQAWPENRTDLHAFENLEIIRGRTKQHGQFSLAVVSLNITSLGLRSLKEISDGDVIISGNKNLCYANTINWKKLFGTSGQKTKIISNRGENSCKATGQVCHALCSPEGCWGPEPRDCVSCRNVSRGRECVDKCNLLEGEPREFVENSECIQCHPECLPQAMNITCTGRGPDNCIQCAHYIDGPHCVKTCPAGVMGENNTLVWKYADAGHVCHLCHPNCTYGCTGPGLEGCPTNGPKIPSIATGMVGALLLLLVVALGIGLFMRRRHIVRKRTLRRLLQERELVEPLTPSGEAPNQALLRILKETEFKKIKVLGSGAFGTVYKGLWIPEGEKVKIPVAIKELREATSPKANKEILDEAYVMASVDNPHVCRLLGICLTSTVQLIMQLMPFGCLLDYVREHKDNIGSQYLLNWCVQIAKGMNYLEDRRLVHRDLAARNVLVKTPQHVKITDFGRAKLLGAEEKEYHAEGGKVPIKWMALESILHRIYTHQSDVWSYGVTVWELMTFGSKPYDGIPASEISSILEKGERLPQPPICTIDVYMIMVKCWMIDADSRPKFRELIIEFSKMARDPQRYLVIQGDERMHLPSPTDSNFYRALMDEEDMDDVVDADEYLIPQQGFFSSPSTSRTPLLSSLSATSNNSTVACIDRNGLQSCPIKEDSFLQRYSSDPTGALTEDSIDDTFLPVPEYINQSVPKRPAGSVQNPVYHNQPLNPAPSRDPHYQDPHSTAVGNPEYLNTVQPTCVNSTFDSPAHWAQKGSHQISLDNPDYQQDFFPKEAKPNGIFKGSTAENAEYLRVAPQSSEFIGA
# [25] = biological target: Tyrosine-protein kinase JAK2 (Homo sapiens) (UniProt O60674); experiment: Inhibition of recombinant human GST-tagged JAK2 (809 to 1162 residues) expressed in baculovirus expression system at 1 uM by Z-lyte assay relative to control
# [26] = biological target: Tyrosine-protein kinase BTK (Homo sapiens) (UniProt Q06187); experiment: Inhibition of recombinant full length human His-tagged BTK expressed in baculovirus expression system at 1 uM by Z-lyte assay relative to control
# Chain of Tyrosine-protein kinase BTK (Homo sapiens) (Q06187 whole entry): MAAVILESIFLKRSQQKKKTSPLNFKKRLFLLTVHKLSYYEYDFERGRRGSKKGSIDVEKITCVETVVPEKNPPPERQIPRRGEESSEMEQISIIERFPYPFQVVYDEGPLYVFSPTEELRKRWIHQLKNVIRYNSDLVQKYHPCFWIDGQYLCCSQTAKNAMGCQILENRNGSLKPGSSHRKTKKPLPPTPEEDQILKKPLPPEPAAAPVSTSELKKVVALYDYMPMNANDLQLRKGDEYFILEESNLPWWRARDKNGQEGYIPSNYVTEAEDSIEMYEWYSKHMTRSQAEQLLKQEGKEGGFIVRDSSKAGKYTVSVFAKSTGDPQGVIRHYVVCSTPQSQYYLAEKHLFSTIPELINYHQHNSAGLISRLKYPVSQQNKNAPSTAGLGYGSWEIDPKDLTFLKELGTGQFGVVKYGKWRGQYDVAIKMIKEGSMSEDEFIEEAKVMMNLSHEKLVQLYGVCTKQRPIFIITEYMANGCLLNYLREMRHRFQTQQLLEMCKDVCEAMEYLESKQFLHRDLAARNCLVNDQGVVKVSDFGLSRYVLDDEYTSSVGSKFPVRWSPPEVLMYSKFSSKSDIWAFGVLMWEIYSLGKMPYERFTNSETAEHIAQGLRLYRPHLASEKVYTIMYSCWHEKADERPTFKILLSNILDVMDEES
# [27] = tested on: NCI-H1975; experiment: Induction of apoptosis in human NCI-H1975 cells assessed as late apoptotic cells at 5 uM by annexinV-FITC/propidium iodide staining based flow cytometry analysis (reference value: 0.42 %); type: functional
# [28] = biological target: Serine/threonine-protein kinase B-raf (Homo sapiens) (UniProt P15056); experiment: Inhibition of recombinant full length human GST-tagged BRAF expressed in baculovirus expression system at 1 uM by Z-lyte assay relative to control
# [29] = biological target: Receptor tyrosine-protein kinase erbB-4 (Homo sapiens) (UniProt Q15303); experiment: Inhibition of N-terminal GST-tagged human recombinant HER4 (708 to 993 residues) expressed in baculovirus expression system at 1 uM by Z-lyte assay relative to control
# [30] = biological target: Receptor tyrosine-protein kinase erbB-2 (Homo sapiens) (UniProt P04626); experiment: Inhibition of human recombinant His-tagged HER2 (676 to 1255 residues) expressed in baculovirus expression system at 1 uM by Z-lyte assay relative to control
# [31] = biological target: Mitogen-activated protein kinase 9 (Homo sapiens) (UniProt P45984); experiment: Inhibition of recombinant full length human His-tagged MAPK9 expressed in baculovirus expression system at 1 uM by Z-lyte assay relative to control
# Chain of Mitogen-activated protein kinase 9 (Homo sapiens) (P45984 whole entry, looked up): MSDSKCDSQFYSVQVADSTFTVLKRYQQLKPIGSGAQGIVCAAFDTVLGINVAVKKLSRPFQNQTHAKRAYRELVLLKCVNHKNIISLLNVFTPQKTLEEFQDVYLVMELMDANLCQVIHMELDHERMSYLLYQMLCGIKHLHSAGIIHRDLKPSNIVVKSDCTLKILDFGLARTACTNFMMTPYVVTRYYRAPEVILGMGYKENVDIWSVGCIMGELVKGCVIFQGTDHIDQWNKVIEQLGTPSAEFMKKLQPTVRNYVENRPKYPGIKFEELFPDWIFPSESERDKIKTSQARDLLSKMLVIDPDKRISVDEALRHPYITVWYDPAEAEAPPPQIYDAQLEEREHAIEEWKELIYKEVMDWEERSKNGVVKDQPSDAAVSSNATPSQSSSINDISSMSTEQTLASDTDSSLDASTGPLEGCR
# [32] = tested on: U87MG Human EGFR vIII; experiment: Induction of apoptosis in human U87MG Human EGFR vIII cells by annexinV-FITC/propidium iodide staining based flow cytometry analysis; type: functional, cell-based
# [33] = biological target: Macrophage colony-stimulating factor 1 receptor (Homo sapiens) (UniProt P07333); experiment: Inhibition of recombinant human His-tagged CSF1R (538 to 910 residues) expressed in baculovirus expression system at 1 uM by Z-lyte assay relative to control
# [34] = biological target: Aurora kinase B (Homo sapiens) (UniProt Q96GD4); experiment: Inhibition of recombinant full length human His-tagged AURKB expressed in baculovirus expression system at 1 uM by Z-lyte assay relative to control
# Chain of Aurora kinase B (Homo sapiens) (Q96GD4 whole entry): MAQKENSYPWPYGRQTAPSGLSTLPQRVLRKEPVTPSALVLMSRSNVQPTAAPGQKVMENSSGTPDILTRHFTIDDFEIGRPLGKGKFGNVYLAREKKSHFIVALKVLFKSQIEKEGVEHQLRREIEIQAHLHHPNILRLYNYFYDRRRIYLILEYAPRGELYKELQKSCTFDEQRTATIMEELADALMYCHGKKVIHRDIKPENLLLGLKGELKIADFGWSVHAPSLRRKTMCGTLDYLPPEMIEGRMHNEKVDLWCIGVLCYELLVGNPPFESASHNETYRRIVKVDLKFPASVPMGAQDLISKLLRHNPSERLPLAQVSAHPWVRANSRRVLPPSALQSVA
structure (smiles),measurement,setting,value
CCC(=O)Nc1cc(Nc2cc(-n3c(SC)nnc3-c3ccc(F)cc3)ccn2)c(OC)cc1N(C)CCN(C)C,IC50,[1],> 100 µM
same,IC50,[2],> 100 µM
same,IC50,[3],73.9 µM
same,IC50,[4],53.1 µM
C=CC(=O)Nc1cc(Nc2nccc(-c3cn(C)c4ccccc34)n2)c(OC)cc1N(C)CCN(C)C [OSIMERTINIB],IC50,[1],13.1 µM
same,IC50,[4],4.5 µM
C=CC(=O)Nc1cc(Nc2cc(-n3c(SC)nnc3-c3ccc(F)cc3)ccn2)c(OC)cc1N1CCC(N(C)C)CC1,IC50,[1],39.7 µM
same,IC50,[2],13.2 µM
same,IC50,[3],11.4 µM
same,IC50,[4],8.42 µM
C=CC(=O)Nc1cc(Nc2cc(-n3c(SC)nnc3-c3ccc(F)cc3)ccn2)c(OC)cc1N(C)CCN(C)C,IC50,[1],18 µM
same,Activity,[5],1.28%
same,inhibition,[6],10%
same,inhibition,[7],17%
same,Activity,[8],1.69%
same,Activity,[9],3.99%
same,IC50,[2],5.4 µM
same,IC50,[10],89.3 nM
same,inhibition,[11],10%
same,Activity,[12],0.44%
same,inhibition,[13],11%
same,inhibition,[14],18%
same,inhibition,[15],9%
same,IC50,[3],4 µM
same,IC50,[4],2.8 µM
same,Activity,[16],84%
same,Activity,[17],4.83%
same,Activity,[18],7.14%
same,Activity,[19],0.91%
same,Activity,[20],1.87%
same,inhibition,[21],5%
same,Activity,[22],97.2%
same,Activity,[23],95.5%
same,IC50,[24],43.1 nM
same,inhibition,[25],12%
same,inhibition,[26],4%
same,Activity,[27],1.1%
same,inhibition,[28],-7%
same,inhibition,[29],76%
same,inhibition,[30],16%
same,inhibition,[31],7%
same,Activity,[32],inactive
same,inhibition,[33],12%
same,inhibition,[34],13%
C=CC(=O)Nc1ccc(OC)c(Nc2cc(-n3c(C)nnc3-c3ccc(F)cc3)ccn2)c1,IC50,[1],35.7 µM
same,IC50,[2],53.5 µM
same,IC50,[3],52.6 µM
same,IC50,[4],68.1 µM
C=CC(=O)Nc1cc(Nc2cc(-n3c(SC)nnc3-c3ccc(F)cc3)ccn2)c(OC)cc1N1CCC(N2CCOCC2)CC1,IC50,[1],20.2 µM
same,IC50,[2],16.7 µM
same,IC50,[3],7 µM
same,IC50,[4],15.2 µM
same,IC50,[24],112 nM
C=CC(=O)Nc1cc(Nc2nccc(-n3cc(CN(C)C)c(-c4ccccc4)n3)n2)c(OC)cc1N1CCOCC1 [LAZERTINIB],IC50,[1],> 100 µM
same,IC50,[2],< 1 µM
same,IC50,[10],34.6 nM
same,IC50,[3],3.6 µM
same,IC50,[4],33.2 µM
same,IC50,[24],2.7 nM
C=CC(=O)Nc1cccc(Nc2cc(-n3c(SC)nnc3-c3ccc(F)cc3)ccn2)c1,IC50,[1],13 µM
same,IC50,[2],10.7 µM
same,IC50,[3],6.9 µM
same,IC50,[4],3.5 µM
same,IC50,[24],234 nM
C=CC(=O)Nc1ccc(OC)c(Nc2cc(-n3c(SC)nnc3-c3ccc(F)cc3)ccn2)c1,IC50,[1],26.3 µM
same,IC50,[2],7.8 µM
same,IC50,[10],179 nM
same,IC50,[3],3.4 µM
same,IC50,[4],4.5 µM
same,IC50,[24],147 nM
